As usually defined, the Papp is the rate of passage across a membrane or cell layer, normalised by area and donor concentration. What is called IC50 is the concentration needed to halve the response being measured. Lower therefore signals inhibition by little substance.

The record followed here is ChEMBL document CHEMBL4321833, “Sugar Kick Prevents Memory Impairment” (J Med Chem, 2019).

Series [1] in a line: Apparent permeability of the compound. It counts as ADME. The conditions noted are these: not told.
For series [2], the target named is T1, Protein O-GlcNAcase (Homo sapiens, UniProt O60502).
T1 sequence (O60502 whole entry): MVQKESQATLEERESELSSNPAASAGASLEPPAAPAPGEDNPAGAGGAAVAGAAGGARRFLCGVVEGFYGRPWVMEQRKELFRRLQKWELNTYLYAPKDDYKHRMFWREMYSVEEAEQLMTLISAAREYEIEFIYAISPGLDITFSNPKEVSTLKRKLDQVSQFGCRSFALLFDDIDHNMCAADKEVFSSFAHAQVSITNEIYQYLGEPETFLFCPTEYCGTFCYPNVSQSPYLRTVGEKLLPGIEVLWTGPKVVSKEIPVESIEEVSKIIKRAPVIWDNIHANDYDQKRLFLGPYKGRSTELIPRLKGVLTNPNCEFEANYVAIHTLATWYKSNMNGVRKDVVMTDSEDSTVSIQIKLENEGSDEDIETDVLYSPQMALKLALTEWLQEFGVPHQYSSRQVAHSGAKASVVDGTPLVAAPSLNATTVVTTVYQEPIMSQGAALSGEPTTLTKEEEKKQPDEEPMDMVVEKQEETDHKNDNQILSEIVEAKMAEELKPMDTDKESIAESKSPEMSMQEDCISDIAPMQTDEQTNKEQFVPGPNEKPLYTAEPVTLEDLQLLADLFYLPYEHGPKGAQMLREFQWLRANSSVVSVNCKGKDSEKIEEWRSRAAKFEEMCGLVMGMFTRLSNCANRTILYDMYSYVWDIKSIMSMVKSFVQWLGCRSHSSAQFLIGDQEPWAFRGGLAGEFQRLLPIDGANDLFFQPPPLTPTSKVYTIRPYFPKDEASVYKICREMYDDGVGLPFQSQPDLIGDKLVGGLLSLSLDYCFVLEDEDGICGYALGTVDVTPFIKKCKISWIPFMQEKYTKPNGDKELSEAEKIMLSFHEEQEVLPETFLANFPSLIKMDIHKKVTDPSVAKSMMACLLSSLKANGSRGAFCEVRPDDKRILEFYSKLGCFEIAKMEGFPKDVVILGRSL
Briefly: Inhibition of human O-GlcNAcase.

In the case of `CCNC1=N[C@@H]2[C@@H](O)[C@H](O)[C@@H](C(F)F)O[C@@H]2S1`, the Papp in series [1] was determined as 64 nm/s. The IC50 in series [2] was 7.9 nM.
